Laboratory results reported in PMC5049494, “Nitrotriazole-based acetamides and propanamides with broad spectrum antitrypanosomal activity” (European Journal of Medicinal Chemistry, 2016).
Like-named read-outs stand apart in the source and are kept apart here.

How the values were obtained:
[1] = system: T.b. rhodesiense, strain STIB 900 trypomastigotes; test: In vitro activity against T. b. rhodesiense; assay type: cell-based; settings: for anti-HAT activity class (TDR criteria): T. b. rhodesiense; for IC50: Trypanosoma brucei, T.b. rhodesiense STIB 900 trypomastigotes, means of 2 to 3 measurements, SD < 5%, read-out: T.b.r. IC50; for SI (T.b.r.): IC50 in L6 cells/IC50 in T.b. rhodesiense; for fold more potent against T. b. rhodesiense than the corresponding acetamide: propanamide vs acetamide analog
Procedure: (§1) Compounds in Table 1 were screened for anti-parasitic activity against three trypanosomatids: T. cruzi, T. b. rhodesiense and Leishmania donovani and compared with previously made analogs shown in orange and designated with a. […] In addition, compounds were tested for toxicity in L6 rat skeletal myoblasts, the host cells for T. cruzi amastigotes, in order to calculate a selectivity index for each parasite [SI = IC50L6/IC50parasite] (Table 1). The TDR (Special Programme for Research and Training in Tropical Diseases, World Health Organization) criteria were adopted to interpret antiparasitic activity and selectivity.
(§2) In vitro activity against T. cruzi, T. b. rhodesiense, L. donovani and cytotoxicity assessment using L6 cells (rat skeletal myoblasts) was determined using a 96-well plate format as previously described. Data were analyzed with the graphic program Softmax Pro (Molecular Devices, Sunnyvale, CA, USA), which calculated IC50 values by linear regression from the sigmoidal dose inhibition curves.

[2] = system: T. cruzi, strain Tulahuen C4 amastigotes; test: In vitro activity against T. cruzi; assay type: cell-based; settings: for SI (T. c.): IC50 in L6 cells/IC50 in T. cruzi; for IC50: Trypanosoma cruzi, T. cruzi Tulahuen C4 amastigotes, means of 2 to 3 measurements, SD < 5%, read-out: T. c. IC50; for Bnz/comp: fold antichagasic potency relative to Bnz (T. cruzi IC50 ratio)
Procedure: (§3) The concentration of compound that inhibits parasite growth by 50% (IC50) was calculated from dose response curves for each parasite (Table 1). In addition, compounds were tested for toxicity in L6 rat skeletal myoblasts, the host cells for T. cruzi amastigotes, in order to calculate a selectivity index for each parasite [SI = IC50L6/IC50parasite]
(§4) In vitro activity against T. cruzi, T. b. rhodesiense, L. donovani and cytotoxicity assessment using L6 cells (rat skeletal myoblasts) was determined using a 96-well plate format as previously described [37]. Data were analyzed with the graphic program Softmax Pro (Molecular Devices, Sunnyvale, CA, USA), which calculated IC50 values by linear regression from the sigmoidal dose inhibition curves.

[3] = system: L. donovani axenic, strain MHOM-ET-67/L82 amastigotes; test: In vitro activity against L. donovani; assay type: cell-based; settings: for IC50: Leishmania donovani, L. donovani axenic amastigotes MHOM-ET-67/L82, means of 2 to 3 measurements, SD < 5%, read-out: L.d. IC50; for SI (L.d.): IC50 in L6 cells/IC50 in L. donovani; for antileishmanial activity class (TDR criteria): L. donovani
Procedure: as §3, §4

[4] = Cytotoxicity in the host L6 cells; assay type: cell-based, rat; settings: rat, L6 cells (rat skeletal myoblasts); cytotoxicity in host L6 cells; read-out: Cyt. L6 IC50
Procedure: as §1, §2

[5] = system: L6 cells (rat skeletal myoblasts); test: Cytotoxicity in the host L6 cells; assay type: cell-based; settings: for fold less toxic towards L6 cells relative to unsubstituted compounds 10 and 10a: 9 vs 10, 9a vs 10a
Procedure: as §1, §2

[6] = system: bloodstream form T.b. brucei wild type; test: T. brucei antiproliferating assay, wild type; assay type: cell-based; settings: means from 4 experiments ± SD
Procedure: The BSF of T. brucei parasites were seeded at 1 × 10^3 mL^−1 in 200 μL of growth medium containing different concentrations of nitroheterocycle. Where appropriate, induction of the TbNTR was carried out by adding tetracycline (1 μg/mL). After incubation for 3 days at 37 °C, 20 μL of Alamar blue was added to each well and the plates incubated for a further 16 h. The cell density of each culture was determined as described before and the IC50 established.

[7] = system: bloodstream form T.b. brucei recombinant parasites expressing wild type (-tet) or elevated (+tet) levels of TbNTR; test: microbe, parasite or virus in culture; assay type: cell-based; settings: Trypanosoma brucei
Procedure: The BSF of T. brucei parasites were seeded at 1 × 10^3 mL^−1 in 200 μL of growth medium containing different concentrations of nitroheterocycle. Where appropriate, induction of the TbNTR was carried out by adding tetracycline (1 μg/mL). After incubation for 3 days at 37 °C, 20 μL of Alamar blue was added to each well and the plates incubated for a further 16 h. The cell density of each culture was determined as described before [20] and the IC50 established.

[8] = system: purified his-tagged recombinant TbNTR; test: Enzymatic activity with type I TbNTR; assay type: biochemical, T. brucei; settings: substrate 100 μM, NADH 100 μM
Procedure: Enzyme specific activity was measured as oxidized NADH (nmol) per min per mg of protein. […] As we have reported before with other classes of 3-nitrotriazole-based antitrypanosomal compounds, no correlation between anti-HAT activity and TbNTR specific activity was observed, [13], [15], [16], [17], [18].
Recombinant TbNTR was prepared and assayed as previously described, [39]. The specific activity of purified his-tagged TbNTR was assessed spectrophotometrically at 340 nm using various nitrotriazole substrates (100 μM) and NADH (100 μM) and expressed as nmol NADH oxidized min^−1 mg^−1 of enzyme.

[9] = system: transgenic T. cruzi parasites expressing firefly luciferase; assay type: in vivo, Balb/c mice; settings: for parasite load after 10 days of treatment: acute murine model, p < 0.0001; for parasitic level after 5-day treatment: compared to untreated control
Procedure: A fast luminescence assay was used in an acute infected murine model, in which transgenic T. cruzi parasites expressing firefly luciferase were injected in 5 week-old Balb/c mice. Mice were injected with D-luciferin before imaging. Groups of 5 mice/group were treated i.p. for 10 consecutive days with each compound, at 13 or 15 mg/kg/day. […] The mean ratio of parasite levels was calculated after 5 and 10 days of treatment.
For in vivo studies, a Brazilian strain trypomastigotes from transgenic T. cruzi parasites expressing firefly luciferase were used as described before. Briefly, parasites (10^5 trypomastigotes) were injected in 5 week-old Balb/c mice (Taconic) and three days later mice were anesthesized by inhalation of isofluorane, followed by an injection with 150 mg/kg of D-luciferin potassium-salt in PBS. Mice were imaged 5–10 min after injection of luciferin with an IVIS 100 (Xenogen, Alameda, CA) and the data acquisition and analysis were performed with the software LivingImage (Xenogen) as described before. Treatment with test compounds started 4 days post infection at 13 or 15 mg/kg/day × 10 days, given i.p. The vehicle control was 2% methylcellulose +0.5% Tween 80 and groups of 5 mice/group were used. Mice were imaged after 5 and 10 days of treatment. The ratio of parasite levels was calculated for each animal dividing the luciferase signal after treatment by the luciferase signal on the first imaging (before treatment). Mean values of all animals in each group ± SD were used for plotting.

[10] = system: T.b. rhodesiense, strain STIB 900 trypomastigotes; parameters: method as in PMID 26344593, PMID 25580906; settings: cited from earlier work
[11] = system: L6 cells (rat skeletal myoblasts); parameters: method as in PMID 26344593, PMID 25580906; settings: previously evaluated compounds (orange, designated a); read-out: Cyt. L6 IC50; cited from earlier work
[12] = Trypanosoma brucei, read-out: IC50 value T.b. brucei Wild type, bloodstream form
[13] = read-out: IC50 value T.b. brucei TbNTR (+tet)
[14] = read-out: IC50 value T.b. brucei TbNTR (-tet)
[15] = propanamide vs acetamide analog

Row | Structure (SMILES) | anti-HAT activity class (TDR criteria) [1] | IC50 [1] [nM] | SI (T. c.) [2] | IC50 [2] [nM] | Bnz/comp [2] | IC50 [3] [nM] | IC50 [4] [nM] | melting point [°C] | SI (T.b.r.) [1] | fold more potent against T. b. rhodesiense than the corresponding acetamide [1] [fold] | IC50 [6, 12] [nM] | IC50 [7, 13] [nM] | IC50 [7, 14] [nM] | TbNTR specific enzyme activity, fold greater than benznidazole [8] [fold] | SI (L.d.) [3] | antileishmanial activity class (TDR criteria) [3] | other results
1 | CN(C(=O)Cn1cnc([N+](=O)[O-])n1)c1ccc(C(F)(F)F)cc1 [Compound 2, N-methyl-2-(3-nitro-1H-1,2,4-triazol-1-yl)-N-(4-(trifluoromethyl)phenyl)acetamide] | inactive | 37400 | ~165 | 1540 | 1.4 | 47700 | 254000 | 133 to 134 | – | – | – | – | – | – | – | – | fold decrease in antichagasic activity compared to 2a ([2]; compared with 2a): 1.6 fold; fold more potent towards T. cruzi amastigotes than 2-nitroimidazole counterpart 3 ([2]; compared with 3): 32 fold; fold decrease in toxicity against L6 cells compared to 2a ([5]; compared with 2a): 2 fold
2 | O=C(CCn1cnc([N+](=O)[O-])n1)Nc1ccc(Oc2ccc(Cl)cc2)cc1 [Compound 6, N-(4-(4-chlorophenoxy)phenyl)-3-(3-nitro-1H-1,2,4-triazol-1-yl)propanamide] | – | 41 | 3343 | 5 | 441 | 1150 | 17300 | – | 418 | 32 | ~650 | 340 | 620 ± 30 | ≤ 4 | – | – | IC50 ([6]; read-out: IC50 value T.b. brucei Wild type, bloodstream form): 640 ± 20 nM; toxicity symptoms in treated mice ([9]; 13 mg/kg/day i.p. x 10 days): did not look very healthy, although no deaths occurred; parasite load after 10 days of treatment ([9]; 13 mg/kg/day i.p. x 10 days): undetectable levels; parasitic level after 5-day treatment ([9]; 13 mg/kg/day i.p.): Statistically significant reduction in parasitic level
3 | N#Cc1ccc(-c2ccc(NC(=O)CCn3cnc([N+](=O)[O-])n3)cc2)cc1 [Compound 9, N-(4′-cyano-[1,1′-biphenyl]-4-yl)-3-(3-nitro-1H-1,2,4-triazol-1-yl)propanamide] | – | 91 | 2453 | 94 | 23 | 3170 | 230000 | – | 2527 | 3.7 | 120 ± 10 | 120 ± 10 | 550 ± 40 | – | 73 | moderately active (‘moderate activity’ (IC50 between 1.0 and 6.0 μM)) | fold more potent against T. cruzi than the acetamide analog [2, 15]: about 1.5 fold; fold less toxic towards L6 cells relative to unsubstituted compounds 10 and 10a [5]: > 6 fold; toxicity symptoms in treated mice ([9]; 15 mg/kg/day i.p. x 10 days): No toxicity symptoms were observed; parasite load after 10 days of treatment ([9]; 15 mg/kg/day i.p. x 10 days): undetectable levels; parasitic level after 5-day treatment ([9]; 15 mg/kg/day i.p.): Statistically significant reduction in parasitic level
4 | N#Cc1ccc(-c2ccc(NC(=O)Cn3cnc([N+](=O)[O-])n3)cc2)cc1 [Compound 9a] | – | – | – | – | – | – | – | – | – | – | – | – | – | – | – | – | fold less toxic towards L6 cells relative to unsubstituted compounds 10 and 10a [5]: > 3.5 fold; anti-HAT activity class (TDR criteria) ([10]; T. b. rhodesiense, previously evaluated acetamides): active; IC50 ([10]; previously evaluated compounds (orange, designated a), read-out: T.b.r. IC50): 336 nM; IC50 [11]: 165000 nM
5 | O=C(CCn1cnc([N+](=O)[O-])n1)Nc1cccc(OCc2ccccc2)c1 [Compound 11, N-(3-(benzyloxy)phenyl)-3-(3-nitro-1H-1,2,4-triazol-1-yl)propanamide] | – | 221 | 868 | 46 | 48 | 1140 | 40200 | 119 to 120 | 182 | 22 | 4250 ± 160 | 360 ± 20 | 3700 ± 580 | ≤ 4 | 35 | moderate activity | fold more potent against L. donovani than the acetamide analog [3, 15]: ca. 3 fold
6 | O=C(Cn1cnc([N+](=O)[O-])n1)Nc1cc(-c2ccc(F)cc2)on1 [Compound 13, N-(5-(4-fluorophenyl)isoxazol-3-yl)-2-(3-nitro-1H-1,2,4-triazol-1-yl)acetamide] | inactive | 8000 | 590 | 340 | 6.5 | 9790 | 201000 | > 220 | 25.1 | – | 26600 ± 6020 | – | – | ≤ 4 | 20.5 | inactive | –
7 | O=C(CCn1cnc([N+](=O)[O-])n1)Nc1cc(-c2ccc(Cl)cc2)no1 [Compound 14, N-(3-(4-chlorophenyl)isoxazol-5-yl)-3-(3-nitro-1H-1,2,4-triazol-1-yl)propanamide] | moderately active (IC50 between 0.5 and 6.0 μM) | 651 | – | 251 | 9 | 2950 | 179000 | – | – | – | 270 ± 50 | 290 ± 20 | 910 ± 30 | – | – | moderately active (‘moderate activity’ (IC50 between 1.0 and 6.0 μM)) | substrate of TbNTR / rate of metabolism [8]: equivalent rates
8 | O=C(Cn1cnc([N+](=O)[O-])n1)Nc1cc(-c2ccc(Cl)cc2)no1 [Compound 15, N-(3-(4-chlorophenyl)isoxazol-5-yl)-2-(3-nitro-1H-1,2,4-triazol-1-yl)acetamide] | inactive | 15100 | – | 1530 | 1.4 | 12500 | 112000 | – | – | – | 8650 ± 490 | 1230 ± 60 | 13300 ± 1400 | – | – | inactive | substrate of TbNTR / rate of metabolism [8]: equivalent rates
